# Measured values from patent publication US20210253518A1, “KINASE INHIBITOR” (NISSAN CHEMICAL CORPORATION, priority 2018, published 2021).
# Columns and labels:
# Assay type in all cases: biochemical
# [1] = biological target: T1, LATS1 (Homo sapiens, UniProt O95835); assay: Kinase Assay method (Fluorospark Kinase/ADP Multi-Assay Kit)
# T1 construct: purchased Carna Biosciences
# T1 sequence (O95835 589-1130 limits assumed): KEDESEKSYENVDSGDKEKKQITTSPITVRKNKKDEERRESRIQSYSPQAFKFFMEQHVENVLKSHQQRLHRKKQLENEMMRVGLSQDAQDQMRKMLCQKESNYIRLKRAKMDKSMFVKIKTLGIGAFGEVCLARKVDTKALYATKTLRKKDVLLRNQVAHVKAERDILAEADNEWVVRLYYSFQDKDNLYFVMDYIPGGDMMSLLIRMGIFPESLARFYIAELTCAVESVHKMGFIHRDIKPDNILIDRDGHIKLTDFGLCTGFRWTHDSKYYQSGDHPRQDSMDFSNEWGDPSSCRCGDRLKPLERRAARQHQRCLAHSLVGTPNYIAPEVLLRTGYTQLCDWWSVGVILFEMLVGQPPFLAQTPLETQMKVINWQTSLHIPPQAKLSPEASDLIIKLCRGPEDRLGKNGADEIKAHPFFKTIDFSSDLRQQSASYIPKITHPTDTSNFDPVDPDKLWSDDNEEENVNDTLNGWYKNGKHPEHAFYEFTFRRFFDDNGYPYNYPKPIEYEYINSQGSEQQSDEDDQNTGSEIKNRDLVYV
# Protocol: (§1) For compound k-1:B-1 (racemate), GA-002A, GA-002B, GA-005A and GA-005B, inhibitory activity evaluation (calculation of IC50) was performed on LATS1 and LATS2 (manufactured by Carna Biosciences). The activity was measured using the Kinase Assay method described below. The compounds were added such that the test concentration of k-1:B-1 (racemate), GA-002A, GA-002B, GA-005A and GA-005B was in 8 steps (10 μM, 1 μM, 100 nM, […], 10 nM, 3 nM, 1 nM, 0.3 nM) from the final concentration of 10 μM to 0.3 nM.
# (§2) As the analysis method of the data, the mean signal of the control well containing reaction components other than the evaluation compound was set to 0% inhibition, the mean signal without enzyme addition was set to 100% inhibition, and the inhibition rate was calculated from the mean signal of 2 wells of each test substance test. IC50 value was calculated using EXSUS (version 7.1.6, manufactured by CAC EXICARE Corporation).
# (§3) 2 μL of a compound of the present invention solution at 2.5-fold concentration, 1 μL of substrate at 5-fold concentration (SGKtide: NH2—CKKRNRRLSVA-COOH, manufactured by SignalChem), ATP (manufactured by Sigma-Aldrich), MgCl2 (manufactured by FUJIFILM Wako Pure Chemical Corporation) solution (final concentration 10 μM, 400 μM or 5 mM), and 2 μL of kinase solution at 2.5-fold concentration (final concentration of LATS1 or LATS2 5 μg/mL), each prepared with assay buffer (20 mM HEPES, 0.01% Triton X-100, 2 mM DTT, pH 7.5), were mixed in the wells of a polypropylene 384-well plate (manufactured by Greiner Bio-One, #784900) and reacted at room temperature for 5 hr. Successively, 5 μL detection solution (Fluorospark (registered trade mark)Kinase/ADP Multi-Assay Kit; manufactured by FUJIFILM Wako Pure Chemical Corporation) was added, and the mixture was reacted at room temperature 30 min. Successively, 5 μL of a reaction quenching liquid (Fluorospark (registered trade mark) Kinase/ADP Multi-Assay Kit; manufactured by FUJIFILM Wako Pure Chemical Corporation) was added to discontinue the reaction. Thereafter, the ADP concentration of the reaction solution was quantified by EnSpire (manufactured by PerkinElmer) to detect the kinase reaction.
# [2] = biological target: T2, LATS2 (Homo sapiens, UniProt Q9NRM7); assay: as above
# T2 construct: purchased Carna Biosciences
# T2 sequence (Q9NRM7 553-1088 limits assumed): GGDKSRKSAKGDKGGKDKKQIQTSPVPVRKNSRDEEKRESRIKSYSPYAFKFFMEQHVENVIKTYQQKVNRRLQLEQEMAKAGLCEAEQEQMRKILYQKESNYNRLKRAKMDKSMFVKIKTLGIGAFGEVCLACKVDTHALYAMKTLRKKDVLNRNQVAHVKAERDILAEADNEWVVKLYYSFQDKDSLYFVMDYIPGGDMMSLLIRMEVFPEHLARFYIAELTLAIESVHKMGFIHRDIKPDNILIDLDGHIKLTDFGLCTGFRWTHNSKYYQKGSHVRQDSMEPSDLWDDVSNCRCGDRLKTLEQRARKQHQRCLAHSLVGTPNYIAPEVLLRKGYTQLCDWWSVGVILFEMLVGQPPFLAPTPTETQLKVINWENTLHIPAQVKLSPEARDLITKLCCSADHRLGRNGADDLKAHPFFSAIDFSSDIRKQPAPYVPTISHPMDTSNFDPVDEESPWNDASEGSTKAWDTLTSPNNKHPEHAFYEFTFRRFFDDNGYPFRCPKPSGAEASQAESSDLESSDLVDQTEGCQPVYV
# Protocol: as §1, §2, §3
# [3] = biological target: T3, LATS2 (Homo sapiens, UniProt Q9NRM7); assay: Off-chip Mobility Shift Assay (MSA method), kinase inhibition; details: MSA method; 10 steps from 10 μM to 0.3 nM
# T3 sequence (Q9NRM7 1-1088): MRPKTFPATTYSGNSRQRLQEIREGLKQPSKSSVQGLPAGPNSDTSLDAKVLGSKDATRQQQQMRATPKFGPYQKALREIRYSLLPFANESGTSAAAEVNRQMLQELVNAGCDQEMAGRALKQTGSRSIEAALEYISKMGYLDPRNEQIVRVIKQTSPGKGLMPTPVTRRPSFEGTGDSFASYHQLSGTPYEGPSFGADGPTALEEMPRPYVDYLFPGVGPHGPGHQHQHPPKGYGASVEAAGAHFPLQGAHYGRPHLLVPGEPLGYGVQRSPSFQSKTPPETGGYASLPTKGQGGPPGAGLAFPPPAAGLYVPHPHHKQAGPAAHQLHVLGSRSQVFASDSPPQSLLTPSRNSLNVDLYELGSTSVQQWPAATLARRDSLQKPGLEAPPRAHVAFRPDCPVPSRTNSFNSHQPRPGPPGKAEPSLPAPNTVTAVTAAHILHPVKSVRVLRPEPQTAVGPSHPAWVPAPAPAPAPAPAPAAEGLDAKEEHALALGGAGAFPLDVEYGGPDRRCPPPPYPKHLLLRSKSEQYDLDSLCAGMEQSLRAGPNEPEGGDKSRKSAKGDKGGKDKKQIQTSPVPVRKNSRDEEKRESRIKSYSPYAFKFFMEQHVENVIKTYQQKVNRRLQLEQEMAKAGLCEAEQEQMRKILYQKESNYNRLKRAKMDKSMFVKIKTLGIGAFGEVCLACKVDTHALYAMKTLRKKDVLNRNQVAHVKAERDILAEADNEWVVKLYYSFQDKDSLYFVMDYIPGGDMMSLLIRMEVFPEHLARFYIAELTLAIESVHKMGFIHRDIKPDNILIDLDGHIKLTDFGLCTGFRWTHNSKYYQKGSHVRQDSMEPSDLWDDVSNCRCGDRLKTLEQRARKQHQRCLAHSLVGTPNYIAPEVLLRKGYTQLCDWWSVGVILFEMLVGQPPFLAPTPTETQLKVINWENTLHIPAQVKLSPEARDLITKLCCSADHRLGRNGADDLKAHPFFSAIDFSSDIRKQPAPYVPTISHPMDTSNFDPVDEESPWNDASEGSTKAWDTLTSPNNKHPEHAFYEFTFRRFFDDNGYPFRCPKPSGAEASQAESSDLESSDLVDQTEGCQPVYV
# Protocol: For compound k-1:B-1, inhibitory activity evaluation (calculation of 50% inhibitory concentration (IC50)) was performed on 8 kinds of kinases (CGK2, LATS2, MSK1, p70S6K, PKACα, PKACβ, SGK2, SGK3). The activity was measured using the Off-chip Mobility Shift Assay (MSA method) described below. The compound was added such that the test concentration of k-1:B-1 was in 10 steps from the final concentration of 10 μM to 0.3 nM.
# As an analysis method of the data, the mean signal of the control well containing all reaction components was set to 0% inhibition, the mean signal without enzyme addition was set to 100% inhibition, and the inhibition rate was calculated from the mean signal of 2 wells of each test substance test. The IC50 value was obtained by approximating a plot based on the test substance concentration and inhibition rate to a 4 parameter logistics curve by using the Excel Solver add-in and by the non-linear least squares method.
# (§4) 5 μL of k-1:B-1 solution at 4-fold concentration, 5 μL of substrate/ATP/metal solution at 4-fold concentration, and 10 μL of kinase solution at 2-fold concentration, each prepared with assay buffer (20 mM HEPES, 0.01% Triton X-100, 2 mM DTT, pH 7.5), were mixed in the wells of a polypropylene 384-well plate and reacted at room temperature for 1 or 5 hr. Successively, 70 μL of Termination Buffer (QuickScout Screening Assist MSA; Carna Biosciences) was added to discontinue the reaction. Then, the substrate peptide and the phosphorylated peptide in the reaction solution were separated and quantified by the LabChip system (Perkin Elmer). The kinase reaction was evaluated by the resultant product ratio (P/(P+S)) calculated from the substrate peptide peak height (S) and the phosphorylated peptide peak height (P).
# For compounds k-1:H-7, k-1:H-1, k-1:D-1, k-1:J-1, and k-1:B-1, inhibitory rate at 100 nM was calculated on 8 kinds of kinases (CGK2, LATS2, MSK1, p70S6K, PKACα, PKACβ, SGK2, SGK3). The activity was measured using the MSA method. As an analysis method of the data, the mean signal of the control well containing all reaction components was set to 0% inhibition, the mean signal without enzyme addition was set to 100% inhibition, and the inhibition rate was calculated from the mean signal of 2 wells of each test substance test.
# as §4, with “a compound” for “k-1:B-1”
# For compounds k-1:I-1, k-1:D-1, k-1:J-1, k-1:H-1, k-1:H-7, k-1:B-1, k-5:H-1, k-1:H-3, k-1:D-4 and k-1:I-10, inhibitory activity evaluation (calculation of IC50) was performed on LATS2. The activity was measured using the Off-chip Mobility Shift Assay (MSA method) described below. The compounds were added such that the test concentration of each compound was in 10 steps from the final concentration of 10 μM to 0.3 nM.
# 5 μL of k-1:I-1, k-1:D-1, k-1:J-1, k-1:H-1, k-1:H-7, k-1:B-1, k-5:H-1, k-1:H-3, k-1:D-4 and k-1:I-10 solutions at 4-fold concentration, 5 μL of substrate/ATP/metal solution at 4-fold concentration, and 10 μL of kinase solution at 2-fold concentration, each prepared with assay buffer (20 mM HEPES, 0.01% Triton X-100, 2 mM DTT, pH 7.5), were mixed in the wells of a polypropylene 384-well plate and reacted at room temperature for 1 or 5 hr. […]
# [4] = Kinase Assay method, 8 steps 10 μM to 0.3 nM
compound,measurement,setting,value
CC/C(=N\NC(=O)[C@H](C)Nc1cccc(O)c1)c1ccc(O)c(C)c1O [GA-005B],inhibition at 0.1 µM,"[1]; 100 nM, read-out: LARS1 inhibitory rate (%)",14%
same,inhibition at 1 µM,"[1]; 1000 nM, read-out: LARS1 inhibitory rate (%)",45%
same,IC50,[1]; [4],1270 nM
same,inhibition at 0.1 µM,"[2]; 100 nM, read-out: LARS2 inhibitory rate (%)",27%
same,inhibition at 1 µM,"[2]; 1000 nM, read-out: LARS2 inhibitory rate (%)",55%
same,IC50,[2]; [4],652 nM
CCC(=NNC(=O)CNc1ccccc1O)c1ccc(O)c(C)c1O [k-1:D-4],IC50,[3],33.4 nM
CCC(=NNC(=O)CNc1cccc(C)c1)c1ccc(O)c(C)c1O [k-1:H-3],IC50,[3],46.9 nM
CC/C(=N\NC(=O)NCc1ccccc1)c1ccc(O)c(C)c1O [k-1:I-1],IC50,[3],96 nM
CCC(=NNC(=O)NC(C)c1cccc(O)c1)c1ccc(O)c(C)c1O (centres unmarked) [k-1:I-10],IC50,[3],15 nM
Cc1c(O)ccc(C(CC(C)C)=NNC(=O)CNc2ccccc2)c1O [k-5:H-1],IC50,[3],21.6 nM
